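In this assay, cells in 96-well plates receive the compound at five concentrations for 48 hours. Endpoints are linearly interpolated between the surrounding concentrations. GI50 is the concentration that inhibits growth by half.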 Calls of active or inactive are those of the source. Cut-off read from the data, not from the text of the source: active = GI50 up to about 1.1 µM and inactive = higher.
How the values were obtained:
Test in all cases: growth of human tumour cells (NCI), 48 h
SW-620 = system: SW-620
SNB-75 = system: SNB-75
M14 = system: M14
IGROV-1 = system: IGROV-1
SK-MEL-28 = system: SK-MEL-28
HOP-62 = system: HOP-62
T47D = system: T47D
COLO 205 = system: COLO 205
OVCAR-8 = system: OVCAR-8
OVCAR-3 = system: OVCAR-3
ACHN = system: ACHN
786-0 = system: 786-0
A498 = system: A498
MOLT-4 = system: MOLT-4
HOP-92 = system: HOP-92
HL-60 = system: HL-60
RXF 393 = system: RXF 393
MDA-MB-231 = system: MDA-MB-231
BT-549 = system: BT-549

| Compound | GI50 (SW-620) | GI50 (SNB-75) | GI50 (M14) | GI50 (IGROV-1) | GI50 (SK-MEL-28) | GI50 (HOP-62) | GI50 (T47D) | GI50 (COLO 205) | GI50 (OVCAR-8) | GI50 (OVCAR-3) | GI50 (ACHN) | GI50 (786-0) | GI50 (A498) | GI50 (MOLT-4) | GI50 (HOP-92) | GI50 (HL-60) | GI50 (RXF 393) | GI50 (MDA-MB-231) | GI50 (BT-549) |
| --- | --- | --- | --- | --- | --- | --- | --- | --- | --- | --- | --- | --- | --- | --- | --- | --- | --- | --- | --- |
| CCOC(=O)CC(=O)N(c1ccc(OC)cc1)C(C(=O)OC)c1ccccc1 (stereo not given) | > 100 µM (inactive) | 61 µM (inactive) | > 100 µM (inactive) | > 100 µM (inactive) | > 100 µM (inactive) | > 100 µM (inactive) | > 100 µM (inactive) | > 100 µM (inactive) | > 100 µM (inactive) | > 100 µM (inactive) | > 100 µM (inactive) | > 100 µM (inactive) |  |  |  |  |  |  |  |
| C[C@@H](c1ccccc1)N(CC#N)[C@H]1CCC[C@]1(O)/C=C/c1ccc2c(c1)OCO2 |  | > 25 µM (inactive) | > 25 µM (inactive) | > 25 µM (inactive) | > 25 µM (inactive) | > 25 µM (inactive) | > 25 µM (inactive) | > 25 µM (inactive) | > 25 µM (inactive) |  | 4.31 µM (inactive) | > 25 µM (inactive) | 3.48 µM (inactive) | > 25 µM (inactive) | > 25 µM (inactive) | > 25 µM (inactive) | > 25 µM (inactive) | > 25 µM (inactive) |  |
| CCCCCCCCCCCCC/C=C(/COCC[N+](C)(C)C)OC(C)=O.CCCCCCCCCCCCCC/C(=C/OCC[N+](C)(C)C)OC(C)=O | 2.92 µM (inactive) | 2.54 µM (inactive) | 2.5 µM (inactive) | 1.69 µM (inactive) | 6.5 µM (inactive) | 1.65 µM (inactive) |  | 1.48 µM (inactive) | 0.944 µM (active) | 1.61 µM (inactive) | 1.65 µM (inactive) | 1.08 µM (active) | 2.49 µM (inactive) | 2.29 µM (inactive) | 1.16 µM (inactive) | 1.64 µM (inactive) | 0.716 µM (active) | 1.78 µM (inactive) | 1.45 µM (inactive) |
| Cc1ccc(NC(=S)N/N=C2\C(=O)Nc3ccccc32)cc1 | > 100 µM (inactive) | > 100 µM (inactive) | 94 µM (inactive) | 84.7 µM (inactive) | 4.76 µM (inactive) | > 100 µM (inactive) | > 100 µM (inactive) | > 100 µM (inactive) | > 100 µM (inactive) | > 100 µM (inactive) | 61.5 µM (inactive) | > 100 µM (inactive) | 51.6 µM (inactive) | > 100 µM (inactive) | > 100 µM (inactive) | > 100 µM (inactive) | 84.7 µM (inactive) | > 100 µM (inactive) |  |
| C=C(C)[C@@H]1CC[C@]2(COC(C)=O)CC[C@]3(C)[C@H](CC[C@@H]4[C@@]5(C)CC[C@H](OC(C)=O)C(C)(C)[C@@H]5CC[C@]43C)[C@@H]12 [BETULIN DIACETATE] | > 50 µM (inactive) | > 50 µM (inactive) | > 50 µM (inactive) | > 50 µM (inactive) | > 50 µM (inactive) | > 50 µM (inactive) |  | > 50 µM (inactive) | > 50 µM (inactive) | 3.01 µM (inactive) | > 50 µM (inactive) | > 50 µM (inactive) | > 50 µM (inactive) | > 50 µM (inactive) | > 31.6 µM (inactive) | > 33.1 µM (inactive) | 0.0385 µM (active) |  | > 50 µM (inactive) |
| COc1ccc2nc3ccccc3c(NCCCCN(CCCl)CCCl)c2c1 | 0.0188 µM (active) | 0.197 µM (active) | 0.22 µM (active) | 0.227 µM (active) | 0.752 µM (active) | 0.655 µM (active) | 1.26 µM (inactive) | 0.368 µM (active) | 0.0218 µM (active) | 0.118 µM (active) | 0.041 µM (active) | 0.0436 µM (active) | 0.109 µM (active) | 0.01 µM (active) | 0.527 µM (active) | 0.0186 µM (active) | 0.0212 µM (active) | 0.7 µM (active) |  |
| O=C1CC(c2ccccc2)n2cccc21 (stereo not given) | > 100 µM (inactive) | > 100 µM (inactive) | > 100 µM (inactive) | > 100 µM (inactive) | > 100 µM (inactive) | > 100 µM (inactive) | > 100 µM (inactive) | > 100 µM (inactive) | > 100 µM (inactive) | > 100 µM (inactive) | > 100 µM (inactive) | > 100 µM (inactive) | > 100 µM (inactive) | > 10 µM (inactive) | > 100 µM (inactive) | 65.6 µM (inactive) | > 100 µM (inactive) | > 100 µM (inactive) |  |
| c1ccc2c(c1)-c1ccccc1C2NC1=NCCO1 | 54.2 µM (inactive) | 15.4 µM (inactive) | 17.2 µM (inactive) | 16.4 µM (inactive) | 24.9 µM (inactive) | 22.5 µM (inactive) | 39.4 µM (inactive) | 18.9 µM (inactive) | 20.8 µM (inactive) | 23.1 µM (inactive) | 28.8 µM (inactive) | 28.1 µM (inactive) | 18.2 µM (inactive) | 29.4 µM (inactive) | 13.9 µM (inactive) | 26.5 µM (inactive) | 42.2 µM (inactive) | 24.3 µM (inactive) |  |
| NCCC(=O)N[C@@H](Cc1cc(O)c(O)c(SCC(NC(=O)CC[C@H](N)C(=O)O)C(=O)NCC(=O)O)c1)C(=O)O (stereo not given in full) | > 50 µM (inactive) | > 50 µM (inactive) | > 50 µM (inactive) | > 50 µM (inactive) | > 50 µM (inactive) | 34.4 µM (inactive) |  | > 50 µM (inactive) |  | > 50 µM (inactive) | > 50 µM (inactive) | > 50 µM (inactive) | > 50 µM (inactive) | > 50 µM (inactive) | > 50 µM (inactive) |  | > 50 µM (inactive) | > 50 µM (inactive) | > 50 µM (inactive) |
| CCOC(=O)c1cnc2oc3ccc(O)cc3c2c1-c1ccccc1 | > 100 µM (inactive) |  | 81.3 µM (inactive) |  | 36.6 µM (inactive) |  | > 100 µM (inactive) | 28.5 µM (inactive) | 12.7 µM (inactive) | > 100 µM (inactive) | 20.9 µM (inactive) | 58.3 µM (inactive) | > 100 µM (inactive) | 7.4 µM (inactive) | 16.3 µM (inactive) | 14.6 µM (inactive) | 41.1 µM (inactive) | 16.8 µM (inactive) |  |
| C=C1CC[C@]2(C)[C@H](CC[C@@]34C[C@@H](CC[C@H]32)[C@@H](C(=O)O)C4)C1(C)C | > 12.5 µM (inactive) |  | > 12.5 µM (inactive) | > 12.5 µM (inactive) | > 12.5 µM (inactive) | 5.36 µM (inactive) |  | 4.54 µM (inactive) | > 12.5 µM (inactive) | > 12.5 µM (inactive) | 8.63 µM (inactive) | 7.83 µM (inactive) | 3.69 µM (inactive) | 6.17 µM (inactive) | 5.5 µM (inactive) | 4.7 µM (inactive) | > 12.5 µM (inactive) | > 12.5 µM (inactive) | > 12.5 µM (inactive) |
| CCOc1cc(/C=C2\N=C(c3ccccc3)N(c3nc4ccccc4s3)C2=O)ccc1O | 47.9 µM (inactive) | 51.2 µM (inactive) | 44.9 µM (inactive) | 28.6 µM (inactive) | 64.4 µM (inactive) | 75 µM (inactive) | 40.6 µM (inactive) |  | 34.7 µM (inactive) | 46.8 µM (inactive) | 37.3 µM (inactive) | 61.1 µM (inactive) | 45.4 µM (inactive) | 19.5 µM (inactive) | > 100 µM (inactive) | 27.9 µM (inactive) | > 100 µM (inactive) | > 100 µM (inactive) |  |
| N#Cc1nc(CCC(C(=O)O)N2C(=O)c3ccccc3C2=O)oc1N (stereo not given) | > 100 µM (inactive) | > 100 µM (inactive) | > 100 µM (inactive) | > 100 µM (inactive) | > 100 µM (inactive) | > 100 µM (inactive) | > 100 µM (inactive) | > 100 µM (inactive) | > 100 µM (inactive) | > 100 µM (inactive) | > 100 µM (inactive) | > 100 µM (inactive) | > 100 µM (inactive) | > 100 µM (inactive) | > 100 µM (inactive) | > 100 µM (inactive) | > 100 µM (inactive) | > 100 µM (inactive) |  |
| CCN=C=NCCCN(C)C | > 100 µM (inactive) | > 100 µM (inactive) | > 100 µM (inactive) | > 100 µM (inactive) | > 100 µM (inactive) | > 100 µM (inactive) |  | > 100 µM (inactive) | > 100 µM (inactive) | > 100 µM (inactive) | > 100 µM (inactive) | > 100 µM (inactive) | > 100 µM (inactive) | > 100 µM (inactive) | > 100 µM (inactive) | > 100 µM (inactive) | > 100 µM (inactive) | > 100 µM (inactive) | > 100 µM (inactive) |
| COc1cc(/C=C2\S/C(=N/Nc3nc(-c4ccc(Br)cc4)cs3)NC2=O)cc(OC)c1OC | 8.55 µM (inactive) | 9.2 µM (inactive) | 15.6 µM (inactive) | 12 µM (inactive) | 10.4 µM (inactive) | 10.5 µM (inactive) |  | 26.8 µM (inactive) | 14.5 µM (inactive) | 13.6 µM (inactive) | 11 µM (inactive) | 9.44 µM (inactive) |  | 3.78 µM (inactive) | 3.63 µM (inactive) | 2.08 µM (inactive) | 4.07 µM (inactive) | 14.3 µM (inactive) | 7.82 µM (inactive) |
| CCOC(=O)c1cnc2oc(/C=N/N3CC(CN4CCOCC4)OC3=O)cc2c1O (stereo not given) | > 100 µM (inactive) | > 100 µM (inactive) | > 100 µM (inactive) | > 100 µM (inactive) | > 100 µM (inactive) | > 100 µM (inactive) | > 100 µM (inactive) | > 100 µM (inactive) | > 100 µM (inactive) | > 100 µM (inactive) | > 100 µM (inactive) | > 100 µM (inactive) |  | > 100 µM (inactive) | > 100 µM (inactive) | > 100 µM (inactive) | > 100 µM (inactive) | > 100 µM (inactive) |  |
